Assay results: patent US9890149B2 (NuBridge BioSciences, priority 2015, dated 2018)

Biological target: T1, ΔF508 mutant CFTR (Homo sapiens, UniProt P13569, DEL508-508)
T1 construct: expressed in transfected cells; host or cells: Fischer rat thyroid (FRT) cells
Assay: Fluorescence Assay (halide-sensitive YFP, iodide influx) for ΔF508 mutant CFTR activity
Assay type: cell-based
Settings: FRT cells expressing ΔF508-CFTR and YFP-H148Q/I152L, incubated 27° C. 20-24 h; forskolin (20 μM) and test compounds (20 μM) for 20 min; rate of fluorescence quenching by I−, normalized to forskolin alone
Source text: The ΔF508 mutant CFTR activities of the CFTR modulators are detected using the Fluorescence Assay developed by Pedemonte (Pedemonte N., et al., Antihypertensive 1,4-dihydropyridines as correctors of the cystic fibrosis transmembrane conductance regulator channel gating defect caused by cystic fibrosis mutations, Mol. Pharmacol., 2005, 68, 1736-1746).
Fischer rat thyroid (FRT) cells, stably transfected with ΔF508 were retransfected with the YFP-H148Q/I152L fluorescent protein. The cells were plated (100,000 cells/well) on black 96-well microplates with clear plastic bottom (Corning Life Sciences, Acton, Mass.).
The 96-well microplates containing FRT cells expressing F508-CFTR and the halide-sensitive YFP were incubated at 27° C. for 20 to 24 h to allow rescue of the mutant protein to the plasma membrane. After incubation, cells were washed with PBS (containing 137 mM NaCl, 2.7 mM KCl, 8.1 mM Na2HPO4, 1.5 mM KH2PO4, 1 mM CaCl2, and 0.5 mM MgCl2) and stimulated for 20 min with forskolin (20 μM) and test compounds (20 μM) in a final volume of […] Microplates were then transferred to a microplate reader for CFTR activity determination.

T1 sequence (P13569 with tags, fused parts or gaps DEL508-508): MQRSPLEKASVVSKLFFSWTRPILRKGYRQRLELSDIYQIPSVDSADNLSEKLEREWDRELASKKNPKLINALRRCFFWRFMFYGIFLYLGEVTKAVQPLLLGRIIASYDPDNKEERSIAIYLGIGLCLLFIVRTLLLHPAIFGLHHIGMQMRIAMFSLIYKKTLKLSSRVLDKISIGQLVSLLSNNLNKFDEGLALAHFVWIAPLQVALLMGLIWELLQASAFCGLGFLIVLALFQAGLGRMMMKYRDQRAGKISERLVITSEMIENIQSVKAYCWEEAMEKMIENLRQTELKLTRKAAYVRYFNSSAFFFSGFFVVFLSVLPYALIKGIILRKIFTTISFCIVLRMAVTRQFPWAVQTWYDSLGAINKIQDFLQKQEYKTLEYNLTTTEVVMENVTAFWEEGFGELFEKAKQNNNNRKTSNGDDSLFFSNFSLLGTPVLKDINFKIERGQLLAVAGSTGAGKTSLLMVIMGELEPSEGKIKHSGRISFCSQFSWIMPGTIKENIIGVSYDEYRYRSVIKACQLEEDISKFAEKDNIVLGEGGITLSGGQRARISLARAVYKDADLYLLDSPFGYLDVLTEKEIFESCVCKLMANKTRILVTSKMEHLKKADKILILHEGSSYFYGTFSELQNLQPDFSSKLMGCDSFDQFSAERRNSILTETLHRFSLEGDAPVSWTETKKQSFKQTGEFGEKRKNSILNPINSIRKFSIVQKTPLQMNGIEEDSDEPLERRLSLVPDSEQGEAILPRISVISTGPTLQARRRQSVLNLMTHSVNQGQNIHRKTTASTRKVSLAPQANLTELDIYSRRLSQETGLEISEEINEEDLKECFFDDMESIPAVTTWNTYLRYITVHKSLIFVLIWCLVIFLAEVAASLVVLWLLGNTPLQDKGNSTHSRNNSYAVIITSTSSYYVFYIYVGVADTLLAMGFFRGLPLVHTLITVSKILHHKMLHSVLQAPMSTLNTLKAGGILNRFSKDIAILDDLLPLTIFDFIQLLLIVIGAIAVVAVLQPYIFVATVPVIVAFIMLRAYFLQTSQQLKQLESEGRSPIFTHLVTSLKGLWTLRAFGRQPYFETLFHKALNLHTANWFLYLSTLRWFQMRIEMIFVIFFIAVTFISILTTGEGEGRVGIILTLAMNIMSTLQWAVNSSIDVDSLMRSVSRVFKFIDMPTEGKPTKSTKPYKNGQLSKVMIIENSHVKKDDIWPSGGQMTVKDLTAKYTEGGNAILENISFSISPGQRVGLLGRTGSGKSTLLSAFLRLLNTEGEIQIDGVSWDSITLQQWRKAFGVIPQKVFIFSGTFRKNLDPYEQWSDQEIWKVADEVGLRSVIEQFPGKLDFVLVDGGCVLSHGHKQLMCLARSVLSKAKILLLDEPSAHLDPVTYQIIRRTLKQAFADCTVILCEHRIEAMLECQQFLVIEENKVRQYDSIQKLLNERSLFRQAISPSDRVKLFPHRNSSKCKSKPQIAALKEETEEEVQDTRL

Structure (SMILES) | CFTR Activity
Cl.NCC(CCl)Oc1sncc1NC(=O)c1nc(-c2c(F)cccc2F)c(F)cc1N (stereo not shown) [Example 33, 3-amino-N-(5-((1-amino-3-chloropropan-2-yl)oxy)isothiazol-4-yl)-6-(2,6-difluorophenyl)-5-fluoropicolinamide hydrochloride] | 1.6
Cl.NCC(CCl)COc1sncc1NC(=O)c1nc(-c2c(F)cccc2F)c(F)cc1N (stereo not shown) [Example 34, 3-amino-N-(5-(3-amino-2-(chloromethyl)propoxy)isothiazol-4-yl)-6-(2,6-difluorophenyl)-5-fluoropicolinamide hydrochloride] | 1.6
Cl.Nc1cc(F)c(-c2c(F)cccc2F)nc1C(=O)Nc1cnsc1OCC1CCCNC1 (stereo not shown) [Example 35, 3-amino-6-(2,6-difluorophenyl)-5-fluoro-N-(5-(piperidin-3-ylmethoxy)isothiazol-4-yl)picolinamide hydrochloride] | 1.6
Cl.NCCCCOc1sncc1NC(=O)c1nc(-c2c(F)cccc2F)c(F)cc1N [Example 36, 3-amino-N-(5-(4-aminobutoxy)isothiazol-4-yl)-6-(2,6-difluorophenyl)-5-fluoropicolinamide hydrochloride] | 1.8
Cl.Nc1cc(F)c(-c2c(F)cccc2F)nc1C(=O)Nc1cnsc1OC1CCCC(N)C1 (stereo not shown) [Example 37, 3-amino-N-(5-((3-aminocyclohexyl)oxy)isothiazol-4-yl)-6-(2,6-difluorophenyl)-5-fluoropicolinamide hydrochloride] | 2.9
Cl.Nc1cc(F)c(-c2ccccc2)nc1C(=O)Nc1cnsc1OC1CCNC1 (stereo not shown) [Example 38, 3-amino-5-fluoro-6-phenyl-N-(5-(pyrrolidin-3-yloxy)isothiazol-4-yl)picolinamide hydrochloride] | 1.3
Cl.O=C(Nc1cnsc1OC1CCNCC1)c1ccc(F)c(-c2ccncc2)n1 [Example 39, 3-fluoro-N-(5-(piperidin-4-yloxy)isothiazol-4-yl)-[2,4′-bipyridine]-6-carboxamide hydrochloride] | 0.3
Cl.O=C(Nc1cnsc1OC1CCCNCC1)c1nc(-c2c(F)cccc2F)ccc1F (stereo not shown) [Example 40, N-(5-(azepan-4-yloxy)isothiazol-4-yl)-6-(2,6-difluorophenyl)-3-fluoropicolinamide hydrochloride] | 1.4
COc1cccc(F)c1-c1nc(C(=O)Nc2cnsc2OC2CCCNCC2)ccc1F.Cl (stereo not shown) [Example 41, N-(5-(azepan-4-yloxy)isothiazol-4-yl)-5-fluoro-6-(2-fluoro-6-methoxyphenyl)picolinamide hydrochloride] | 1.6
Cl.O=C(Nc1cnsc1OC1CCCNCC1)c1ccc(C(F)(F)F)c(-c2c(F)cccc2F)n1 (stereo not shown) [Example 42, N-(5-(azepan-4-yloxy)isothiazol-4-yl)-6-(2,6-difluorophenyl)-5-(trifluoromethyl)picolinamide hydrochloride] | 0.4
Cl.O=C(Nc1cnsc1OCC1CCNCC1)c1ccc(C(F)(F)F)c(-c2c(F)cccc2F)n1 [Example 43, 6-(2,6-difluorophenyl)-N-(5-(piperidin-4-ylmethoxy)isothiazol-4-yl)-5-(trifluoromethyl)picolinamide hydrochloride] | 0.3
Cl.O=C(Nc1cnsc1OCC1CNC1)c1ccc(C(F)(F)F)c(-c2c(F)cccc2F)n1 [Example 44, N-(5-(azetidin-3-ylmethoxy)isothiazol-4-yl)-6-(2,6-difluorophenyl)-5-(trifluoromethyl)picolinamide hydrochloride] | 0.3
Cl.O=C(Nc1cnsc1OC1CCNCC1)c1ccc(C(F)(F)F)c(-c2c(F)cccc2F)n1 [Example 45, 6-(2,6-difluorophenyl)-N-(5-(piperidin-4-yloxy)isothiazol-4-yl)-5-(trifluoromethyl)picolinamide hydrochloride] | 1.7
